Experimental findings from US5596002A, “Method of treating chloroquine-resistant malaria with aminoquinoline derivatives” (Hoffmann-La Roche Inc., priority 1993, dated 1997) are described below.

Holding throughout (type): cell-based
Experiment [1] relates to Plasmodium falciparum, chloroquine-sensitive strain HB3. The experiment can be described thus: activity against P. falciparum in vitro, strain HB3. The settings on record: chloroquine-sensitive strain HB3, 48 h-72 h, read-out: IC50 (50% growth inhibition). As for the experimental part: (§1) Test method for the determination of the activity against P. falciparum in vitro
(§2) The preparations of the present invention were tested on intraerythrocytary stages of P. falciparum from asynchronous cultures according to the method of Desjardin et al. (Desjardins, R. E. et al: Quantitative assessment of antimalarial activity in vitro by a semiautomated microdilution technique. Antimicrob. Agents Chemother. 16, 710-718, (1979)).
(§3) The culture medium consisted of RPMI 1640 with the addition of 25 mM HEPES, 25 mM NaHCO3, […] neomycin and 10% human serum (A^+). Human-A^+ erythrocytes were used as the P. falciparum host cells. The parasites were maintained at 37° C. in an atmosphere of 3% O2, 4% CO2, 93% N2 and at 95% relative humidity.
(§4) In order to determine the activity, the preparations were dissolved in DMSO, pre-diluted in the culture medium to a suitable starting concentration and subsequently titrated-out into microtitre plates in the 2nd stage over 6-7 steps. After the addition of the parasite culture (0.7% parasitemia in 2.5% erythrocyte suspension), the test plates were incubated under the conditions given above for 48 h-72 h. The parasite growth in the different preparation concentrations was determined using [G-^3 H]-hypoxanthin incorporation compared to untreated control cultures on the same test plates. The 50% growth inhibition (IC50) was calculated according to logit regression analysis from the resulting dosage-activity curve.
(§5) The preparations were tested on at least one chloroquine-resistant and one chloroquine-sensitive P. falciparum strain. Additional sensitive and resistant strains were also included for further characterization.
(§6) Table 1 below contains the IC50 values measured in vitro for the growth inhibition of chloroquine-sensitive and chloroquine-resistant strains of the human pathogenic Plasmodium falciparum.

The test system of experiment [2] is Plasmodium falciparum, chloroquine-resistant strain K1. The experiment can be described thus: activity against P. falciparum in vitro, strain K1. The settings on record: Plasmodium falciparum; chloroquine-resistant strain K1; 48 h-72 h; read-out: IC50 (50% growth inhibition). The procedure: as §1, §2, §3, §4, §5, §6
For experiment [3], the system named is Plasmodium falciparum, chloroquine-resistant strain W2 Mef. In words: activity against P. falciparum in vitro, strain W2 Mef. The settings on record: 48 h-72 h, read-out: IC50 (50% growth inhibition). As for the experimental part: as §1, §2, §3, §4, §5, §6
Experiment [4] relates to Plasmodium falciparum, chloroquine-resistant strain 7G8. In words: activity against P. falciparum in vitro, strain 7G8. To be noted: chloroquine-resistant strain 7G8, 48 h-72 h, read-out: IC50 (50% growth inhibition). The procedure:
as §1, §2, §3, §4, §5, §6

The test system of experiment [5] is Plasmodium falciparum, chloroquine-sensitive strain NF54. The experiment can be described thus: activity against P. falciparum in vitro, strain NF54. The settings on record: Plasmodium falciparum; chloroquine-sensitive strain NF54; 48 h-72 h; read-out: IC50 (50% growth inhibition). As for the experimental part: as §1, §2, §3, §4, §5, §6
Experiment [6] has as its system Plasmodium falciparum, chloroquine-sensitive strain FCH5C2. The experiment can be described thus: activity against P. falciparum in vitro, strain FCH5C2. The settings on record: chloroquine-sensitive strain FCH5C2, 48 h-72 h, read-out: IC50 (50% growth inhibition). The procedure: as §1, §2, §3, §4, §5, §6
Experiment [7] relates to Plasmodium falciparum, chloroquine-sensitive strain RFMEF3. In words: activity against P. falciparum in vitro, strain RFMEF3. The settings on record: chloroquine-sensitive strain RFMEF3, 48 h-72 h, read-out: IC50 (50% growth inhibition). As for the experimental part:
as §1, §2, §3, §4, §5, §6

Experiment [8] concerns Plasmodium falciparum, chloroquine-sensitive strain Ro7 3. In words: activity against P. falciparum in vitro, strain Ro7 3. The settings on record: chloroquine-sensitive strain Ro7 3, 48 h-72 h, read-out: IC50 (50% growth inhibition). The procedure: as §1, §2, §3, §4, §5, §6
Experiment [9] relates to Plasmodium falciparum, chloroquine-resistant strain Indo. In words: activity against P. falciparum in vitro, strain Indo. To be noted: chloroquine-resistant strain Indo, 48 h-72 h, read-out: IC50 (50% growth inhibition). As for the experimental part: as §1, §2, §3, §4, §5, §6
Experiment [10] deals with Plasmodium falciparum, chloroquine-resistant strain ItG2 F6. The experiment can be described thus: activity against P. falciparum in vitro, strain ItG2 F6. The settings on record: chloroquine-resistant strain ItG2 F6, 48 h-72 h, read-out: IC50 (50% growth inhibition). As for the experimental part: as §1, §2, §3, §4, §5, §6
Experiment [11] has as its system Plasmodium falciparum, chloroquine-resistant strain W2. In words: activity against P. falciparum in vitro, strain W2. The settings on record: chloroquine-resistant strain W2, 48 h-72 h, read-out: IC50 (50% growth inhibition). The procedure: as §1, §2, §3, §4, §5, §6
For experiment [12], the system named is Plasmodium falciparum, chloroquine-resistant strain RFCR3. In words: activity against P. falciparum in vitro, strain RFCR3. To be noted: chloroquine-resistant strain RFCR3, 48 h-72 h, read-out: IC50 (50% growth inhibition). As for the experimental part: as §1, §2, §3, §4, §5, §6

Values after ≈ are worked out from the molar mass of the structure shown.

Take `CC(CN1CCCC1)Nc1ccnc2cc(Cl)ccc12` (racemic) [Example 3, (RS)-(7-Chloro-quinolin-4-yl)-(1-methyl-2-pyrrolidin-1-yl-ethyl)-amine]: the IC50 – broadly, the midpoint of a concentration-inhibition curve – in experiment [1] was 5 ng/mL (≈ 0.0173 µM); in [2], 12 ng/mL (≈ 0.0414 µM); in experiment [3], 11 ng/mL (≈ 0.038 µM); in experiment [4] it was 7 ng/mL (≈ 0.0242 µM); in experiment [5], 7 ng/mL (≈ 0.0242 µM); in experiment [6], 7 ng/mL (≈ 0.0242 µM). The IC50 in experiment [7] was 7 ng/mL (≈ 0.0242 µM); in experiment [8], 4 ng/mL (≈ 0.0138 µM); in [9], 6 ng/mL (≈ 0.0207 µM); in experiment [10], 5 ng/mL (≈ 0.0173 µM); in [11] it was 7 ng/mL (≈ 0.0242 µM); in experiment [12], 8 ng/mL (≈ 0.0276 µM).

`CC(CN1CCCCC1)Nc1ccnc2cc(Cl)ccc12` (racemic) [Example 4, (RS)-(7-Chloro-quinolin-4-yl)-(1-methyl-2-piperidin-1-yl-ethyl)-amine]: the IC50 was 8 ng/mL (≈ 0.0263 µM) in experiment [1]; 15 ng/mL (≈ 0.0494 µM) in [2]; 14 ng/mL (≈ 0.0461 µM) in experiment [3]; 7 ng/mL (≈ 0.023 µM) in experiment [4]; 7 ng/mL (≈ 0.023 µM) in experiment [5]; 8 ng/mL (≈ 0.0263 µM) in [6]. The concentration for half-maximal inhibition (IC50) was determined as 7 ng/mL (≈ 0.023 µM) in experiment [7]; 4 ng/mL (≈ 0.0132 µM) in experiment [8]; 8 ng/mL (≈ 0.0263 µM) in experiment [9]; 5 ng/mL (≈ 0.0165 µM) in experiment [10]; 15 ng/mL (≈ 0.0494 µM) in experiment [11]; 9 ng/mL (≈ 0.0296 µM) in experiment [12].

Take `CC1CCCN(CCNc2ccnc3cc(Cl)ccc23)C1` (racemic) [Example 23, (RS)-(7-Chloro-quinolin-4-yl)-[2-(3-methyl-piperidin-1-yl)-ethyl]-amine]: the concentration for half-maximal inhibition (IC50) in experiment [1] worked out at 7 ng/mL (≈ 0.023 µM); in experiment [2] it was 15 ng/mL (≈ 0.0494 µM); in experiment [3] it was 13 ng/mL (≈ 0.0428 µM); in experiment [4] it was 8 ng/mL (≈ 0.0263 µM); in experiment [5], 6 ng/mL (≈ 0.0197 µM); in experiment [6], 6 ng/mL (≈ 0.0197 µM). In addition, the IC50 in experiment [7] worked out at 7 ng/mL (≈ 0.023 µM); in experiment [8], 4 ng/mL (≈ 0.0132 µM); in experiment [9], 8 ng/mL (≈ 0.0263 µM); in experiment [10], 6 ng/mL (≈ 0.0197 µM); in [11] it was 15 ng/mL (≈ 0.0494 µM); in [12], 10 ng/mL (≈ 0.0329 µM).

For the compound `CC1CCCCN1CCNc1ccnc2cc(Cl)ccc12` (racemic) [Example 26, (RS)-(7-Chloro-quinolin-4-yl)-[2-(2-methyl-piperidin-1-yl) -ethyl]-amine], the IC50 came out at 8 ng/mL (≈ 0.0263 µM) in experiment [1]; 15 ng/mL (≈ 0.0494 µM) in experiment [2]; 13 ng/mL (≈ 0.0428 µM) in [3]; 8 ng/mL (≈ 0.0263 µM) in [4]; 7 ng/mL (≈ 0.023 µM) in experiment [5]; 8 ng/mL (≈ 0.0263 µM) in experiment [6]. The IC50 in experiment [7] turned out to be 9 ng/mL (≈ 0.0296 µM); in [8], 5 ng/mL (≈ 0.0165 µM); in [9] it was 9 ng/mL (≈ 0.0296 µM); in experiment [10], 6 ng/mL (≈ 0.0197 µM); in experiment [11], 15 ng/mL (≈ 0.0494 µM); in [12] it was 8 ng/mL (≈ 0.0263 µM).
